# Results published in patent publication US20250179047A1, “5-[7-(3,4-DIHYDRO-1H-ISOQUINOLINE-2-CARBONYL)-1,2,3,4 TETRAHYDROISOQUINOLIN-6-YL]-1H-PYRROLE-3-CARBOXAMIDE DERIVATIVES, PHARMACEUTICAL COMPOSITIONS CONTAINING THEM AND THEIR USES AS PRO-APOPTOTIC AGENTS” (LES LABORATOIRES SERVIER, priority 2022, published 2025).
# Columns and labels:
# BCL2 D103Y = BCL2 D103Y (Homo sapiens, UniProt P10415, D103Y); assay: TR-FRET competitive binding assay, BCL2 D103Y; conditions: Ki determined from IC50, read-out: TR_FRET EKI_Bcl2 D103Y
# Description: (§1) The relative binding potency of each compound was determined in a competitive binding assay using time resolved-fluorescence resonance energy transfer (TR-FRET). The method utilised a fluorescein labelled peptide derived from PUMA (5Flu-Ahx-[…]-NH2 wherein Ahx means 6-hexanoic acid monomer and the amino acid sequence is referred to as SEQ ID:01) which binds to a terbium labelled BCL2 or BCLXL protein. The degree of binding or corresponding compound inhibition can be quantified by the TR-FRET signal between the terbium donor and fluorescein acceptor.
# (§2) The human BCL2_wild-type (also named BCL2_wt), BCL2_G101V mutant and BCLXL_wild-type were E. coli expressed as a N-terminal Halo-fusion proteins and singly labelled with Terbium on the Halo protein to afford the following amino acid sequences:
# (§3) wherein the BCL2(1-207) sequence corresponds to UniProtKB® primary accession number P10415 and the BCLXL(2-196) sequence corresponds to UniProtKB® primary accession number Q07817-1.
# (§4) The assay was performed in a 40 μL volume in white 384-standard well plates (Corning #3574). An 11-point serial dilution of each compound was prepared in DMSO and transferred directly to plate followed by addition of fluorescein labelled peptide and lastly protein. Final assay conditions were 0.5 nM BCL2_wt, BCL2_G101V, BCL2_D103Y, BCL2_F104I, BCL2_D111A or BCLXL_wt, 2 or 20 nM fluorescein labelled peptide, 50 mM Hepes pH 7.5, 150 mM NaCl, 0.5 mM TCEP (Tris(2-carboxyethyl)phosphine), 0.05% Tween 20, 5% DMSO. The mixture was incubated for 2 hours at 23° C.
# (§5) TR-FRET measurements were performed on a Biotek Synergy Neo plate reader. TR-FRET was measured by excitation of the Terbium-donor at 340 nm and subsequent (delay time 100 μs) measurement of terbium and fluorescein emission at 495 nm and 520 nm, respectively, over a collection time of 300 μs. The TR-FRET signal was calculated as the emission-ratio at 520 nm over 495 nm.
# (§6) The TR-FRET ratio readout for test compounds was normalized against 0% inhibition controls wells and 100% inhibition control wells. Test compound potency (IC50) was estimated by nonlinear regression using the sigmoidal dose-response (variable slope) using Xlfit 4 (IDBS, Guildford, Surrey, UK, model 205). Were the IC50 could not be determined the % inhibition at the highest tested concentration is given.
# (§7) y=(A+((B−A)/(1+((C/x)^D))))
# (§8) where y is the normalized TR-TRET ratio measurement for a given concentration of test compound, x is the concentration of test compound, A is the estimated efficacy (% inhibition) at infinite compound dilution, and B is the maximal efficacy (% inhibition). C is the IC50 value and D is the Hill slope coefficient.
# (§9) The K1 values were determined from the IC50 values according to Cer et al, Nucleic Acids Res, 2009, July 1; 37 (WebServer issue): W441-W445.
# BCL2 WT = BCL2 WT (Homo sapiens (Human), UniProt P10415); assay: TR-FRET competitive binding assay, BCL2 WT; conditions: Ki determined from IC50, read-out: TR_FRET EKI_Bcl2 WT
# Description: as §1, §2, §3, §4, §5, §6, §7, §8, §9
# BCL2 G101V [1] = molecular target: BCL2 G101V (Homo sapiens, UniProt P10415, G101V); assay: TR-FRET competitive binding assay, BCL2 G101V; conditions: BCL2 G101V; Ki determined from IC50; read-out: TR_FRET EKI_Bcl2 G101V
# Description: as §1, §2, §3, §4, §5, §6, §7, §8, §9
# BCL2 G101V [2] = assay: TR-FRET competitive binding assay, BCL2 G101V; parameters: species or system human; conditions: ratio Ki BCL2 G101V / Ki BCL2 WT
# Description: as §1, §2, §3, §4, §5, §6, §7, §8, §9
# BCLXL WT = BCLXL WT (Homo sapiens (Human), UniProt Q07817); assay: TR-FRET competitive binding assay, BCLXL WT; conditions: for Ki: BCLXL WT, Ki determined from IC50, read-out: TR_FRET EKI BclxL; for TR_FRET EKI BCLxL/WT selectivty ratio: ratio Ki BCLxL / Ki BCL2 WT
# Description: as §1, §2, §3, §4, §5, §6, §7, §8, §9
# KMS-12-PE Bcl-2 G101V = assay: In vitro cytotoxicity CellTiter-Glo 48 h, KMS-12-PE Bcl-2 G101V; assay type: cell-based; conditions: for Ratio (G101V/WT): C50 KMS-12-PE Bcl-2 G101V over C50 KMS-12-PE Bcl-2 WT; for IC50: Homo sapiens, KMS-12-PE, 48 h, CellTiter-Glo, C50 = concentration needed to reach 50% of the cellular viability
# Description: (§10) KMS-12-PE (ACC 606) were purchased from the Leibniz-Institute DSMZ (Braunschweig, Germany) and were grown at 37° C. in a humidified atmosphere with […] in media recommended by the suppliers. Lentiviral particles containing Bcl-2 wild type (also named “Bcl2 WT”) and Bcl-2 mutated on G101V (also named “Bcl2 G101V”) were cloned into pcLV-CMV-DEST-IRES-TagRFP. Lentiviral particles (1×106) were mixed with Polybrene at 8 µg/ml and transduced by spinoculation for 1 h at 32° C. and incubated overnight. After 8 days, TagRFP positive-cells were sorted by FACS. BCL2 expression was monitored by immunoblotting using anti-Flag and anti-BCL2 antibodies.
# (§11) Cellular viability was monitored with the cell viability assay (CellTiter-Glo®) on KMS-12-PE WT and G101V cell lines. The CellTiter-Glo® (CTG) Luminescent Cell Viability Assay (from Promega) is a homogeneous method to determine the number of viable cells in culture based on quantitation of the ATP present, which signals the presence of metabolically active cells.
# (§12) Dose response of compounds are performed with 10 mM stock solutions (DMSO), 11-points curve, in a 384-well compound plate. The assay plate is prepared by stamping 40 nL from compound dilution plate of all different concentrations (e.g. 10 mM to have final […] assay test) into a cell culture microplate, using Echo acoustic liquid handling (Labcyte, Beckman). 40 μl of cell solution is added and cells are incubated with compounds for 48 h at 37° C., 5% CO2. CTG was added to the cells (according to the manufacturer instructions) and luminescence intensity was recorded using the Pherastar plate reader (BMG).
# (§13) This assay provides in vitro cellular potency of the tested Bcl-2 inhibitors, measuring the C50, defined as the concentration needed to reach 50% of the cellular viability.
# KMS-12-PE Bcl-2 WT = assay: In vitro cytotoxicity CellTiter-Glo 48 h, KMS-12-PE Bcl-2 WT; assay type: cell-based; conditions: Homo sapiens, KMS-12-PE, C50 = concentration needed to reach 50% of the cellular viability
# Description: as §10, §11, §12, §13
# BCLXL WT, sequence (Q07817 other isoform, or with tags, fused parts or gaps): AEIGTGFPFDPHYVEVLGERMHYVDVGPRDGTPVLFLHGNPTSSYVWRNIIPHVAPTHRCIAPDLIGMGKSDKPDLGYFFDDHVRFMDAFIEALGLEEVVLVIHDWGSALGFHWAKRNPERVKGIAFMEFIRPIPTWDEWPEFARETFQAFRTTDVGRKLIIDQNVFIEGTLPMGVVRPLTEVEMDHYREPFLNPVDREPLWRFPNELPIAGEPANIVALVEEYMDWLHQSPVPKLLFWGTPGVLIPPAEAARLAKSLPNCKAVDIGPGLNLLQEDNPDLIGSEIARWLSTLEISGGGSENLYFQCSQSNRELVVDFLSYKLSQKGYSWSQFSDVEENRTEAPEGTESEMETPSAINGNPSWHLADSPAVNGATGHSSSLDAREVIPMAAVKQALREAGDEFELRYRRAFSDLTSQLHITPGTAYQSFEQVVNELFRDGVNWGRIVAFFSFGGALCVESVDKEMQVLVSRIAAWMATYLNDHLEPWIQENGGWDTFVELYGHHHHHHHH
Structure (SMILES),Ki (BCL2 D103Y) [nM],Ki (BCL2 WT) [nM],Ki (BCL2 G101V [1]) [nM],TR_FRET EKI G101V/WT selectivty ratio (BCL2 G101V [2]),Ki (BCLXL WT) [nM],TR_FRET EKI BCLxL/WT selectivty ratio (BCLXL WT),Ratio (G101V/WT) (KMS-12-PE Bcl-2 G101V),IC50 (KMS-12-PE Bcl-2 G101V) [µM],IC50 (KMS-12-PE Bcl-2 WT) [µM]
"Cc1c(N(C(=O)c2cc(-c3cc4c(cc3C(=O)N3Cc5ccccc5C[C@H]3C)CN(C(=O)C(F)(F)c3ccc(N5CCN(C)CC5)cc3)CC4)n(C)c2C)c2ccc(O)cc2)cc(C#N)n1C [Example 26, N-(5-cyano-1,2-dimethylpyrrol-3-yl)-5-(2-{2,2-difluoro-2-[4-(4-methylpiperazin-1-yl)phenyl]acetyl}-7-{[(3R)-3-methyl-3,4-dihydro-1H-isoquinolin-2-yl]carbonyl}-3,4-dihydro-1H-isoquinolin-6-yl)-N-(4-hydroxyphenyl)-1,2-dimethylpyrrole-3-carboxamide]",0.83,1.1,5.3,4.8,23.2,21.1,,,
"COCc1ccc(CC(=O)N2CCc3cc(-c4cc(C(=O)N(c5ccc(O)cc5)c5cc(C#N)n(C)c5C)c(C)n4C)c(C(=O)N4Cc5ccccc5C[C@H]4C)cc3C2)cc1 [Example 87, N-(5-cyano-1,2-dimethyl-1H-pyrrol-3-yl)-N-(4-hydroxyphenyl)-5-(2-{2-[4-(methoxymethyl)phenyl]acetyl}-7-[(3R)-3-methyl-1,2,3,4-tetrahydroisoquinoline-2-carbonyl]-1,2,3,4-tetrahydroisoquinolin-6-yl)-1,2-dimethyl-1H-pyrrole-3-carboxamide]",0.46,0.12,0.5,,1.3,10.8,5.43,0.0394,0.0073
"Cc1c(N(C(=O)c2cc(-c3cc4c(cc3C(=O)N3Cc5ccccc5C[C@H]3CN3CCC[C@@H]3C)CN(C(=O)Cc3ccc(OCCN5CCOCC5)cc3F)CC4)n(C)c2C)c2ccc(O)cc2)cc(C#N)n1C [Example 173, N-(5-cyano-1,2-dimethylpyrrol-3-yl)-5-[2-(2-{2-fluoro-4-[2-(morpholin-4-yl)ethoxy]phenyl}acetyl)-7-{[(3S)-3-{[(2S)-2-methylpyrrolidin-1-yl]methyl}-3,4-dihydro-1H-isoquinolin-2-yl]carbonyl}-3,4-dihydro-1H-isoquinolin-6-yl]-N-(4-hydroxyphenyl)-1,2-dimethylpyrrole-3-carboxamide]",0.12,0.03,0.3,,4,133.3,5.5095,0.0465,0.0084
"Cc1c(C(=O)N(c2ccc(O)cc2)c2cnn(C(F)F)c2)cc(-c2cc3c(cc2C(=O)N2Cc4ccccc4C[C@H]2C)CN(C(=O)Cc2ccc(OCCN4CCOCC4)cc2F)CC3)n1C [Example 186, N-[1-(difluoromethyl)pyrazol-4-yl]-5-[2-[2-[2-fluoro-4-(2-morpholinoethoxy)phenyl]acetyl]-7-[(3R)-3-methyl-3,4-dihydro-1H-isoquinoline-2-carbonyl]-3,4-dihydro-1H-isoquinolin-6-yl]-N-(4-hydroxyphenyl)-1,2-dimethyl-pyrrole-3-carboxamide]",0.04,0.01,0.2,,5.3,410.0,,,0.0047
"COc1ncc(N(C(=O)c2cc(-c3cc4c(cc3C(=O)N3Cc5ccccc5C[C@H]3C)CN(C(=O)Cc3cccc(N5CC6(CN(C)C6)C5)c3)CC4)n(C)c2C)c2ccccc2)cc1F [Example 198, N-(5-fluoro-6-methoxy-3-pyridyl)-1,2-dimethyl-5-[2-[2-[3-(6-methyl-2,6-diazaspiro[3.3]heptan-2-yl)phenyl]acetyl]-7-[(3R)-3-methyl-3,4-dihydro-1H-isoquinoline-2-carbonyl]-3,4-dihydro-1H-isoquinolin-6-yl]-N-phenyl-pyrrole-3-carboxamide]",0.07,0.01,1.4,,0.6,58.6,,,0.0349
"Cc1c(C(=O)N(c2ccccc2)c2cnn(C(F)F)c2)cc(-c2cc3c(cc2C(=O)N2Cc4ccccc4C[C@H]2C)CN(C(=O)Cc2ccc(OCCN(C)C)cc2)CC3)n1C [Example 199, N-[1-(difluoromethyl)pyrazol-4-yl]-5-[2-[2-[4-[2-(dimethylamino)ethoxy]phenyl]acetyl]-7-[(3R)-3-methyl-3,4-dihydro-1H-isoquinoline-2-carbonyl]-3,4-dihydro-1H-isoquinolin-6-yl]-1,2-dimethyl-N-phenyl-pyrrole-3-carboxamide]",0.19,0.08,4.6,,8.8,116.3,,,0.0244
"COc1ncc(N(C(=O)c2cc(-c3cc4c(cc3C(=O)N3Cc5ccccc5C[C@H]3C)CN(C(=O)Cc3ccc(OCCN5CCOCC5)cc3)CC4)n(C)c2C)c2ccccc2)cc1C#N [Example 201, N-(5-cyano-6-methoxy-3-pyridyl)-1,2-dimethyl-5-[7-[(3R)-3-methyl-3,4-dihydro-1H-isoquinoline-2-carbonyl]-2-[2-[4-(2-morpholinoethoxy)phenyl]acetyl]-3,4-dihydro-1H-isoquinolin-6-yl]-N-phenyl-pyrrole-3-carboxamide]",0.09,0.05,1.2,,16.4,322.5,,,0.0394
Cc1c(N(C(=O)c2cc(-c3cc4c(cc3C(=O)N3Cc5ccccc5C[C@H]3C)CN(C(=O)Cc3cccc(N5CCCN(C)CC5)c3)CC4)n(C)c2C)c2ccc(O)cc2)cc(C#N)n1C [Example 231],,,,,,,,,0.0391
Cc1c(N(C(=O)c2cc(-c3cc4c(cc3C(=O)N3Cc5ccccc5C[C@H]3C)CN(C(=O)Cc3ccc(OCCC5CCN(C)CC5)nc3)CC4)n(C)c2C)c2ccc(O)cc2)cc(C#N)n1C [Example 232],,,,,,,2.0,0.0657,0.0328
